# According to US20260226071A1, “2, 4-DIANILINOPYRIMIDINE-BASED AURORA-A KINASE SELECTIVE DEGRADATION INDUCING COMPOUNDS” (UPPTHERA, INC., priority 2023, published 2026):
# Legend:
# Aurora kinase A (AURKA) = target: T1, Aurora kinase A (AURKA) (Homo sapiens, UniProt O14965); test: Luciferase assay for AURKA in HeLa LgBit (AURKA-HiBit KI) cell line; assay type: cell-based; details: HeLa LgBit (AURKA-HiBit KI) cells, measured after 12 hours
# T1 construct: endogenous in cells; host or cells: HeLa LgBit (AURKA-HiBit KI), CRISPR/Cas9 knock-in at the endogenous AURKA locus
# T1 sequence (O14965 1-403): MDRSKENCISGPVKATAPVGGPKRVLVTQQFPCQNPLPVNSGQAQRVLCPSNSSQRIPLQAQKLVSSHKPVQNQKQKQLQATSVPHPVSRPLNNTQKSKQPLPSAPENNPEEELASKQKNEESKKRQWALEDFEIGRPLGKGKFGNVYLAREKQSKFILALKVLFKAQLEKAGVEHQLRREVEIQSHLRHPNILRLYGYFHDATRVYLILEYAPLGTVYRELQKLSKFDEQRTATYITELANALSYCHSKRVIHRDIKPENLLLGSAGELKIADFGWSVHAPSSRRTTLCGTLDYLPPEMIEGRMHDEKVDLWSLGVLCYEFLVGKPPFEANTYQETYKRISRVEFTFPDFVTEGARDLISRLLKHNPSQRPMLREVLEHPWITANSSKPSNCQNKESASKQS
# In short: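 HeLa cells stably expressing LgBit, with HiBit knocked in at the C-terminus of endogenous AURKA; 3×10^4 cells seeded, 18 h, then Endurazine substrate 2 h. Compounds tested at 10 nM or 100 nM; luminescence read at 470-480 nm after 12 h as real-time read-out.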
# NCI-H446 cell line = test: Cell viability assay for NCI-H446 cell line; assay type: cell-based; details: Homo sapiens, NCI-H446, 120 h; H446 cells, 5 days culture, EZ-Cytox; read-out: IC50 value (Level)
# In short: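 H446 cells seeded 24 h before treatment with compound in 3-fold dilutions, 1000 to 0.15 nM, then cultured 5 days at 37 °C, 5% CO2 in RPMI 1640/10% FBS. Viability read with EZ-Cytox (4 h) as absorbance at 450 nm.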
smiles,measurement,setting,value
"O=C1CCC(c2ccc(N3CCN(CCN4CCC(COc5ccc(Nc6ncc(F)c(Nc7ccc(C(=O)Nc8ccccc8Cl)cc7)n6)cc5)CC4)CC3)cc2)C(=O)N1 (stereo not drawn) [Compound 99, N-(2-chlorophenyl)-4-((2-((4-((1-(2-(4-(4-(2,6-dioxopiperidin-3-yl)phenyl)piperazin-1-yl)ethyl)piperidin-4-yl)methoxy)phenyl)amino)-5-fluoropyrimidin-4-yl)amino) benzamide]",luminescence value (Level),Aurora kinase A (AURKA); 10 nM compound,D (D is 0.7 to 0.8)
same,luminescence value (Level),Aurora kinase A (AURKA); 100 nM compound,B (B is 0.2 to 0.4)
same,IC50,NCI-H446 cell line,> 200 nM
"CN(Cc1ccc(Nc2ncc(F)c(Nc3ccc(C(=O)Nc4ccccc4Cl)cc3)n2)cc1)C1CCN(CCN2CCN(c3ccc(C4CCC(=O)NC4=O)cc3)CC2)CC1 (stereo not drawn) [Compound 100, N-(2-chlorophenyl)-4-((2-((4-(((1-(2-(4-(4-(2,6-dioxopiperidin-3-yl)phenyl)piperazin-1-yl)ethyl)piperidin-4-yl)(methyl)amino)methyl)phenyl)amino)-5-fluoropyrimidin-4-yl)amino)benzamide]",luminescence value (Level),Aurora kinase A (AURKA); 10 nM compound,C (C is 0.5 to 0.7)
same,luminescence value (Level),Aurora kinase A (AURKA); 100 nM compound,A (A is <0.2)
same,IC50,NCI-H446 cell line,> 200 nM
"O=C1CCC(c2ccc(N3CCN(CCC4CCN(NC(=O)c5ccc(Nc6ncc(F)c(Oc7ccc(C(=O)Nc8ccccc8Cl)cc7)n6)cc5)CC4)CC3)cc2)C(=O)N1 (stereo not drawn) [Compound 101, N-(2-chlorophenyl)-4-((2-((4-((4-(2-(4-(4-(2,6-dioxopiperidin-3-yl)phenyl)piperazin-1-yl)ethyl)piperidin-1-yl)carbamoyl)phenyl)amino)-5-fluoropyrimidin-4-yl)oxy) benzamide]",luminescence value (Level),Aurora kinase A (AURKA); 10 nM compound,B (B is 0.3 to 0.5)
same,luminescence value (Level),Aurora kinase A (AURKA); 100 nM compound,A (A is <0.2)
same,IC50,NCI-H446 cell line,> 200 nM
"O=C1CCC(c2ccc(N3CCN(CCC4CCN(NC(=O)c5ccc(Nc6ncc(F)c(Nc7ccc(C(=O)Nc8ccccc8)cc7)n6)cc5)CC4)CC3)cc2)C(=O)N1 (stereo not drawn) [Compound 103, 4-[[2-[4-[[4-[2-[4-[4-(2,6-dioxo-3-piperidyl)phenyl]piperazin-1-yl]ethyl]-1-piperidyl]carbamoyl]anilino]-5-fluoro-pyrimidin-4-yl]amino]-N-phenyl-benzamide]",luminescence value (Level),Aurora kinase A (AURKA); 10 nM compound,B (B is 0.3 to 0.5)
same,luminescence value (Level),Aurora kinase A (AURKA); 100 nM compound,A (A is <0.2)
same,IC50,NCI-H446 cell line,50 to 100 nM
"O=C1CCC(c2ccc(N3CCN(CCC4CCN(NC(=O)c5ccc(Nc6ncc(F)c(Nc7ccc(NC(=O)c8ccccc8F)cc7)n6)cc5)CC4)CC3)cc2)C(=O)N1 (stereo not drawn) [Compound 104, N-[4-[[2-[4-[[4-[2-[4-[4-(2,6-dioxo-3-piperidyl)phenyl]piperazin-1-yl]ethyl]-1-piperidyl]carbamoyl]anilino]-5-fluoro-pyrimidin-4-yl]amino]phenyl]-2-fluoro-benzamide]",luminescence value (Level),Aurora kinase A (AURKA); 10 nM compound,A (A is <0.3)
same,luminescence value (Level),Aurora kinase A (AURKA); 100 nM compound,A (A is <0.2)
same,IC50,NCI-H446 cell line,< 50 nM
"Cn1c(=O)n(C2CCC(=O)NC2=O)c2ccc(N3CCN(CCC4CCN(NC(=O)c5ccc(Nc6ncc(F)c(Nc7ccc(C(=O)Nc8ccccc8Cl)cc7)n6)cc5)CC4)CC3)cc21 (stereo not drawn) [Compound 106, N-(2-chlorophenyl)-4-((2-((4-((4-(2-(4-(1-(2,6-dioxopiperidin-3-yl)-3-methyl-2-oxo-2,3-dihydro-1H-benzo[d]imidazol-5-yl)piperazin-1-yl)ethyl)piperidin-1-yl)carbamoyl)phenyl)amino)-5-fluoropyrimidin-4-yl)amino)benzamide]",luminescence value (Level),Aurora kinase A (AURKA); 10 nM compound,A (A is <0.3)
same,luminescence value (Level),Aurora kinase A (AURKA); 100 nM compound,A (A is <0.2)
same,IC50,NCI-H446 cell line,100 to 150 nM
"O=C1CC[C@@H](Nc2ccc(N3CCN(CCC4CCN(NC(=O)c5ccc(Nc6ncc(F)c(Nc7ccc(C(=O)Nc8ccccc8Cl)cc7)n6)cc5)CC4)CC3)c(F)c2)C(=O)N1 [Compound 108, (R)—N-(2-chlorophenyl)-4-((2-((4-((4-(2-(4-(4-((2,6-dioxopiperidin-3-yl)amino)-2-fluorophenyl)piperazin-1-yl)ethyl)piperidin-1-yl)carbamoyl)phenyl)amino)-5-fluoropyrimidin-4-yl)amino)benzamide]",luminescence value (Level),Aurora kinase A (AURKA); 10 nM compound,A (A is <0.3)
same,luminescence value (Level),Aurora kinase A (AURKA); 100 nM compound,A (A is <0.2)
same,IC50,NCI-H446 cell line,< 50 nM
"O=C1CCC(Nc2cc(F)c(N3CCN(CCC4CCN(NC(=O)c5ccc(Nc6ncc(F)c(Nc7ccc(NC(=O)c8ccccc8F)cc7)n6)cc5F)CC4)CC3)cc2F)C(=O)N1 (stereo not drawn) [Compound 109, N-(4-(2-(4-(4-((2,6-dioxopiperidin-3-yl)amino)-2,5-difluorophenyl)piperazin-1-yl)ethyl)piperidin-1-yl)-2-fluoro-4-((5-fluoro-4-((4-(2-fluorobenzamido)phenyl)amino)pyrimidin-2-yl)amino)benzamide]",luminescence value (Level),Aurora kinase A (AURKA); 10 nM compound,B (B is 0.3 to 0.5)
same,luminescence value (Level),Aurora kinase A (AURKA); 100 nM compound,A (A is <0.2)
same,IC50,NCI-H446 cell line,50 to 100 nM
"O=C1CCC(c2ccc(N3CCN(CCC4CCN(C(=O)c5ccc(Nc6ncc(F)c(Nc7ccc(C(=O)Nc8ccccc8Cl)cc7)n6)cc5)CC4)CC3)cc2)C(=O)N1 (stereo not drawn) [Compound 110, N-(2-chlorophenyl)-4-[[2-[4-[4-[2-[4-[4-(2,6-dioxo-3-piperidyl)phenyl]piperazin-1-yl]ethyl]piperidine-1-carbonyl]anilino]-5-fluoro-pyrimidin-4-yl]amino]benzamide]",luminescence value (Level),Aurora kinase A (AURKA); 10 nM compound,C (C is 0.5 to 0.7)
same,luminescence value (Level),Aurora kinase A (AURKA); 100 nM compound,B (B is 0.2 to 0.4)
same,IC50,NCI-H446 cell line,150 to 200 nM
"O=C1CC[C@@H](Nc2ccc(N3CCN(CCC4CCN(NC(=O)c5ccc(Nc6ncc(F)c(Nc7ccc(C(=O)Nc8ccccc8Cl)cc7)n6)cc5)CC4)CC3)cc2F)C(=O)N1 [Compound 111, (R)—N-(2-chlorophenyl)-4-((2-((4-((4-(2-(4-(4-((2,6-dioxopiperidin-3-yl)amino)-3-fluorophenyl)piperazin-1-yl)ethyl)piperidin-1-yl)carbamoyl)phenyl)amino)-5-fluoropyrimidin-4-yl)amino)benzamide]",luminescence value (Level),Aurora kinase A (AURKA); 10 nM compound,A (A is <0.3)
same,luminescence value (Level),Aurora kinase A (AURKA); 100 nM compound,A (A is <0.2)
same,IC50,NCI-H446 cell line,< 50 nM
"O=C1CCC(c2cc(F)c(N3CCN(CCC4CCN(NC(=O)c5ccc(Nc6ncc(F)c(Nc7ccc(NC(=O)c8ccccc8F)cc7)n6)cc5F)CC4)CC3)cc2F)C(=O)N1 (stereo not drawn) [Compound 112, N-[4-[2-[4-[4-(2,6-dioxo-3-piperidyl)-2,5-difluoro-phenyl]piperazin-1-yl]ethyl]-1-piperidyl]-2-fluoro-4-[[5-fluoro-4-[4-[(2-fluorobenzoyl)amino]anilino]pyrimidin-2-yl]amino]benzamide]",luminescence value (Level),Aurora kinase A (AURKA); 10 nM compound,A (A is <0.3)
same,luminescence value (Level),Aurora kinase A (AURKA); 100 nM compound,A (A is <0.2)
same,IC50,NCI-H446 cell line,< 50 nM
"C[C@H]1CN(c2ccc(C3CCC(=O)NC3=O)cc2)CCN1CCC1CCN(NC(=O)c2ccc(Nc3ncc(F)c(Nc4ccc(C(=O)Nc5ccccc5Cl)cc4)n3)cc2)CC1 (stereo partly drawn) [Compound 113, N-(2-chlorophenyl)-4-((2-((4-((4-(2-((2S)-4-(4-(2,6-dioxopiperidin-3-yl)phenyl)-2-methylpiperazin-1-yl)ethyl)piperidin-1-yl)carbamoyl)phenyl)amino)-5-fluoropyrimidin-4-yl)amino)benzamide]",luminescence value (Level),Aurora kinase A (AURKA); 10 nM compound,A (A is <0.3)
same,luminescence value (Level),Aurora kinase A (AURKA); 100 nM compound,A (A is <0.2)
same,IC50,NCI-H446 cell line,< 50 nM
